Values of other authors as cited in patent publication US10485754B2, “Method for the production of a sodium ion-free effervescent tablet, powder or granulate having a high X ion content, where X can be a variety of substances” (BIOFAR LABORATOIRES, priority 2014, dated 2019).

In the case of `O=C([O-])[O-].[Ca+2]` [calcium carbonate], the “calcium carbonate that can be dissolved in one liter of water” value (water) is listed as 0.014 grams in one liter of water and the “calcium carbonate that can be dissolved in one liter of water with CO2” value (with CO2 soda in the water) is listed as “up to 16.6 grams in one liter of water”.
